Measured values published in US20040018500A1, “Methods and systems for analyzing complex biological systems” (priority 2001, published 2004).
Entries after “also recorded” stand apart in the source; their conditions may differ.

Tests used:
[1] = test system: Arabidopsis thaliana plants; test: SOA1 phenotypic analysis of herbicide-treated Arabidopsis plants; format: in vivo; settings: for characteristic symptoms (phenotypic analysis): herbicide-treated Arabidopsis; for leafCurling (Dev.) / leafTwisting (Dev.) / leafWidth (Dev.) / matureLeafAnthocyanins (Dev.) / matureLeafChlorosis (Dev.) / matureLeafNecrosis (Dev.) / newLeafAnthocyanins (Dev.) / newLeafChlorosis (Dev.) / newLeafNecrosis (Dev.) / pointedLeaves (Dev.): numeric value standardized to mock treated tissues; for tMic (Dev.): score for time to full symptoms at minimum inhibitory concentration; for Symptom Class: three-week-old Arabidopsis treated with herbicide, phenotypes shown in FIG. 12
[2] = test system: Saccharomyces cerevisiae wild type strain BY4743; test: AF1 metabolite analysis (GC-MS, LC-MS) of yeast treated with antifungal drugs; format: cell-based
Arabidopsis plants = settings: nitrate addition to N-starved Arabidopsis; cited from earlier work
Arabidopsis thaliana [3] = test: MOA1 biochemical (metabolite) profiling by LC-MS and GC-MS of sprayed Arabidopsis; settings: for Number of Metabolites Changed: (unknown #) / Number of Metabolites Changed: Total #: 1 hr; for commonly regulated (putative stress-related) metabolites: MOA1, 20 minutes and 1 hour after spraying
Arabidopsis thaliana [4] = test: MOA1 gene expression profiling (22,000 gene array) of sprayed Arabidopsis; settings: for No. of Lethal Genes Altered: regulated genes (1 hr) found in list of genes essential for plant growth and development; for extent of gene expression perturbation compared to the other treatments: 1 hr
Magnaporthe grisea = format: cell-based

c1cc[n+]2c(c1)-c1cccc[n+]1CC2 [Diquat]
characteristic symptoms (phenotypic analysis) [1]: rapid and widespread leaf necrosis | leafCurling (Dev.) [1]: 2 | leafTwisting (Dev.) [1]: 0 | leafWidth (Dev.) [1]: −2 | matureLeafAnthocyanins (Dev.) [1]: 0 | matureLeafChlorosis (Dev.) [1]: 1 | matureLeafNecrosis (Dev.) [1]: 4 | newLeafAnthocyanins (Dev.) [1]: 0 | newLeafChlorosis (Dev.) [1]: 1 | newLeafNecrosis (Dev.) [1]: 4 | pointedLeaves (Dev.) [1]: 1 | tMic (Dev.) [1]: 2 | Symptom Class [1]: 7

CC[C@@H]([C@H](C)O)n1ncn(-c2ccc(N3CCN(c4ccc(OC[C@@H]5CO[C@@](Cn6cncn6)(c6ccc(F)cc6F)C5)cc4)CC3)cc2)c1=O [Posaconazote]
Fold Change of porphobilinogen ([2]; platform nLC, p-Value 1): 0

CCc1cccc(C)c1N(C(=O)CCl)C(C)COC (stereo not shown) [Metolachlor]
Symptom Class [1]: 7

CC[C@@H]([C@H](C)O)n1ncn(-c2ccc(N3CCN(c4ccc(OC[C@@H]5CO[C@@](Cn6cncn6)(c6ccc(F)cc6F)C5)cc4)CC3)cc2)c1=O [Posaconazoie]
Fold Change luteolin ([2]; platform LC): 0

COc1c(Cl)ccc(Cl)c1C(=O)O [Dicamba]
Symptom Class [1]: 5

O=C(O)c1cc(Oc2ccc(C(F)(F)F)cc2Cl)ccc1[N+](=O)[O-] [Acifluorfen]
characteristic symptoms (phenotypic analysis) [1]: Necrotic leaf flecks | Symptom Class [1]: 6

O=[N+]([O-])O [Nitrate, nitrate]
Nitrate Regulation of Glutamate synthetase (Arabidopsis plants): ↑ | Nitrate Regulation of Glutamine synthetase(2) (Arabidopsis plants): ↑ | Nitrate Regulation of MADs Box(2) (Arabidopsis plants): ↓ | Nitrate Regulation of MYB transcription factor (Arabidopsis plants): ↑ | Nitrate Regulation of Malate Dehydrogenase (Arabidopsis plants): ↑ | Nitrate Regulation of Nitrate transporter (Arabidopsis plants): ↑ | Nitrate Regulation of Phosphate transporter (Arabidopsis plants): ↑ | Nitrate Regulation of Transaldolase (Arabidopsis plants): ↑ | Nitrate Regulation of Transketolase (Arabidopsis plants): ↑

COC(=O)c1cc(Oc2ccc(Cl)cc2Cl)ccc1[N+](=O)[O-] [Bifenox]
characteristic symptoms (phenotypic analysis) [1]: Necrotic leaf flecks | Symptom Class [1]: 6

CP(=O)(O)CCC(N)C(=O)O (stereo not shown) [Glufosinate]
Number of Metabolites Changed: (unknown #) (Arabidopsis thaliana [3]; p < 0.05): 4(4) | Number of Metabolites Changed: Total # (Arabidopsis thaliana [3]; p < 0.05): 4(4) | Number of Metabolites Changed: (unknown #) (Arabidopsis thaliana [3]; p < 0.11): 9(9) | Number of Metabolites Changed: Total # (Arabidopsis thaliana [3]; p < 0.11): 9(9) | commonly regulated (putative stress-related) metabolites (Arabidopsis thaliana [3]): Only a few, if any, stress-related metabolites were observed | characteristic symptoms (phenotypic analysis) [1]: Chlorosis and leaf curling | leafCurling (Dev.) [1]: 2 | leafTwisting (Dev.) [1]: 1 | leafWidth (Dev.) [1]: −2 | matureLeafAnthocyanins (Dev.) [1]: 0 | matureLeafChlorosis (Dev.) [1]: 3 | matureLeafNecrosis (Dev.) [1]: 0 | newLeafAnthocyanins (Dev.) [1]: 0 | newLeafChlorosis (Dev.) [1]: 3 | newLeafNecrosis (Dev.) [1]: 0 | pointedLeaves (Dev.) [1]: 1 | tMic (Dev.) [1]: 1 | Symptom Class [1]: 3 | No. of Lethal Genes Altered (Arabidopsis thaliana [4]): 10 | nitrogen sources M. grisea can utilize in the presence of the compound (Magnaporthe grisea): only able to utilize glutamine and glutamate as nitrogen sources

CC(C)N1C(=O)c2ccccc2NS1(=O)=O [Bentazon]
characteristic symptoms (phenotypic analysis) [1]: rapid and widespread leaf necrosis | Symptom Class [1]: 7

O=C(O)Cn1c(=O)sc2cccc(Cl)c21 [Benazolin]
Symptom Class [1]: 5

CCc1cnc(C2=NC(C)(C(C)C)C(=O)N2)c(C(=O)O)c1 (stereo not shown) [Imazethapyr]
characteristic symptoms (phenotypic analysis) [1]: anthocyanin accumulation in the older leaves accompanied by chlorosis of the newly emerging leaves | Symptom Class [1]: 4

CCNc1nc(Cl)nc(NC(C)C)n1 [Atrazine]
characteristic symptoms (phenotypic analysis) [1]: rapid and widespread leaf necrosis | Symptom Class [1]: 7

O=C(O)CNCP(=O)(O)O [Glyphosate]
tyrosine level (Arabidopsis thaliana [3]; MOA1 metabolite data, one hour, relative to the control): decreased relative to the control after one hour | characteristic symptoms (phenotypic analysis) [1]: anthocyanin accumulation in the older leaves accompanied by chlorosis of the newly emerging leaves | leafCurling (Dev.) [1]: 0 | leafTwisting (Dev.) [1]: 0 | leafWidth (Dev.) [1]: 0 | matureLeafAnthocyanins (Dev.) [1]: 3 | matureLeafChlorosis (Dev.) [1]: 1 | matureLeafNecrosis (Dev.) [1]: 3 | newLeafAnthocyanins (Dev.) [1]: 1 | newLeafChlorosis (Dev.) [1]: 2 | newLeafNecrosis (Dev.) [1]: 0 | pointedLeaves (Dev.) [1]: 1 | tMic (Dev.) [1]: 2 | Symptom Class [1]: 4 | Tier 4: growth of M. grisea with ammonium or glutamine as nitrogen source (Magnaporthe grisea): Little growth defect | growth of M. grisea with nitrate, nitrite, or glutamate as the sole nitrogen source (Magnaporthe grisea): inhibited growth | comparison of growth results for Tiers 3 and 4 (Unknown 4 versus glyphosate) (Magnaporthe grisea; 250 μg/ml): nearly identical as compared to Unknown 4 | growth inhibition of M. grisea and its remediation (Magnaporthe grisea; glyphosate at 1.0 mg/ml): remediated by inclusion of aromatic amino acids

CN(C)C(=O)Nc1ccc(Cl)c(Cl)c1 [Diuron]
characteristic symptoms (phenotypic analysis) [1]: rapid and widespread leaf necrosis | leafCurling (Dev.) [1]: 1 | leafTwisting (Dev.) [1]: 0 | leafWidth (Dev.) [1]: −2 | matureLeafAnthocyanins (Dev.) [1]: 0 | matureLeafChlorosis (Dev.) [1]: 2 | matureLeafNecrosis (Dev.) [1]: 4 | newLeafAnthocyanins (Dev.) [1]: newLeafAnthocyanins 0 | newLeafChlorosis (Dev.) [1]: 2 | newLeafNecrosis (Dev.) [1]: 4 | pointedLeaves (Dev.) [1]: 1 | tMic (Dev.) [1]: 1 | Symptom Class [1]: 7

CC(C)C1(C)N=C(c2ncccc2C(=O)O)NC1=O (stereo not shown) [Imazapyr]
commonly regulated (putative stress-related) metabolites (Arabidopsis thaliana [3]): Only a few, if any, stress-related metabolites were observed | characteristic symptoms (phenotypic analysis) [1]: anthocyanin accumulation in the older leaves accompanied by chlorosis of the newly emerging leaves | Symptom Class [1]: 4

CS(=O)(=O)c1cc(C(F)(F)F)ccc1C(=O)c1cnoc1C1CC1 [Isoxaflutole]
Alpha-tocopherol levels (Arabidopsis thaliana [3]; MOA1 metabolite data, early time points): not significantly changed relative to the control | tyrosine and phenylalanine levels (Arabidopsis thaliana [3]; MOA1 metabolite data, relative to the control): up-regulated relative to the control; also recorded: began to accumulate relative to the control after one hour | No. of Lethal Genes Altered (Arabidopsis thaliana [4]): 15

O=C(O)c1ccccc1C(=O)Nc1cccc2ccccc12 [Naptalam]
extent of gene expression perturbation compared to the other treatments (Arabidopsis thaliana [4]): fewest gene expression perturbations | No. of Lethal Genes Altered (Arabidopsis thaliana [4]): 3

CSc1nnc(C(C)(C)C)c(=O)n1N [Metribuzin]
characteristic symptoms (phenotypic analysis) [1]: rapid and widespread leaf necrosis | Symptom Class [1]: 7

O=C(O)COc1ccc(Cl)cc1Cl [2,4-D]
leafCurling (Dev.) [1]: 1 | leafTwisting (Dev.) [1]: 2 | leafWidth (Dev.) [1]: −1 | matureLeafAnthocyanins (Dev.) [1]: 1 | matureLeafChlorosis (Dev.) [1]: 2 | matureLeafNecrosis (Dev.) [1]: 0 | newLeafAnthocyanins (Dev.) [1]: 0 | newLeafChlorosis (Dev.) [1]: 1 | newLeafNecrosis (Dev.) [1]: 0 | pointedLeaves (Dev.) [1]: 0 | tMic (Dev.) [1]: 2 | Symptom Class [1]: 5

COc1nc(C)nc(NC(=O)NS(=O)(=O)c2ccccc2Cl)n1 [Chlorsulfuron]
characteristic symptoms (phenotypic analysis) [1]: anthocyanin accumulation in the older leaves accompanied by chlorosis of the newly emerging leaves | Symptom Class [1]: 4 | No. of Lethal Genes Altered (Arabidopsis thaliana [4]): 8

OC(Cn1cncn1)(Cn1cncn1)c1ccc(F)cc1F [Fiuconazole]
Fold Change of hypoxanthine ([2]; nLC): 0.7757

CNc1cnn(-c2cccc(C(F)(F)F)c2)c(=O)c1Cl [Norfluazon, Norflurazon]
commonly regulated (putative stress-related) metabolites (Arabidopsis thaliana [3]): Only a few, if any, stress-related metabolites were observed

COC(=O)NS(=O)(=O)c1ccc(N)cc1 [Asulam]
extent of gene expression perturbation compared to the other treatments (Arabidopsis thaliana [4]): fewest gene expression perturbations | No. of Lethal Genes Altered (Arabidopsis thaliana [4]): 5

C[n+]1ccc(-c2cc[n+](C)cc2)cc1 [Paraquat]
characteristic symptoms (phenotypic analysis) [1]: rapid and widespread leaf necrosis | leafCurling (Dev.) [1]: 2 | leafTwisting (Dev.) [1]: 0 | leafWidth (Dev.) [1]: −1 | matureLeafAnthocyanins (Dev.) [1]: 0 | matureLeafChlorosis (Dev.) [1]: 1 | matureLeafNecrosis (Dev.) [1]: 4 | newLeafAnthocyanins (Dev.) [1]: 0 | newLeafChlorosis (Dev.) [1]: 1 | newLeafNecrosis (Dev.) [1]: 4 | pointedLeaves (Dev.) [1]: 1 | tMic (Dev.) [1]: 2 | Symptom Class [1]: 7
